In patent US11110146B2, “Methods for reducing platelet aggregation and treating cardiovascular disease and other medical disorders” (Paradise Health, Inc., priority 2014, dated 2021):
Where “and” joins values, the source holds several entries; their conditions need not be identical. Identical values can stand only once.

Tests used:
Type in all cases: cell-based, human
[1] = system: platelets in platelet-rich plasma (PRP); experiment: Light transmission aggregometry, platelet aggregation induced by arachidonic acid
Experimental: (§1) All the experiments were conducted using healthy adult volunteers not taking aspirin or other medications that affect platelet aggregation. Whole blood was collected into 0.105 M buffered sodium citrate as the anticoagulant. Platelet-rich plasma (PRP) was prepared by centrifugation of whole blood at 135×g for 20 min. The residual blood sample was then centrifuged at 2,500×g for 15 min to obtain platelet-poor plasma (PPP). Platelet counts in the PRP were determined using a Horiba Micros 60 cell counter. For LTA experiments, platelet counts in PRP were adjusted to 250,000/μL using autologous donor PPP as the diluent.
The stock vial (16 mM) of AA was diluted by adding 0.5 mL of deionized water to obtain a 1.6 mM AA solution. The AA solution was maintained on ice and was used within 6 hr of preparation.
The samples were incubated in a water bath at 37° C. for 30 min before performing the LTA experiments.
The adjusted PRP was incubated with indicated concentration of GoPE (Table 7) for 30 min at 37° C.
(§2) After incubation of PRP with test articles, 450 μL of PRP were transferred into aggregation cuvettes for LTA testing. All aggregation experiments were performed on a LTA-Chronolog 700 aggregometer with Aggrolink 8 software. The instrument was set for an optical mode of data acquisition and the stir bar speed was set to 1.200 rpm. Autologous PPP was used in the reference channel of the aggregometer and baselines were set prior to addition of agonists. Fifty (50) μL of working agonist solutions (AA, ADP, and Collagen) were added to the cuvettes and tracings recorded for a minimum of 6 minutes. The maximal aggregation (MA) response was calculated using Aggrolink software for reporting the data.

[2] = system: platelets in platelet-rich plasma (PRP); experiment: Light transmission aggregometry, platelet aggregation induced by adenosine diphosphate; details: for inhibition of platelet aggregation in the presence of 5 or 20 μM ADP: at any of the concentrations tested
Experimental: as §1
Stock solutions of ADP (200 μM) were prepared in saline and stored frozen at −80° C. A vial of stock ADP was thawed and further diluted in saline to obtain a 50 μM ADP solution. Fifty (50) μL of ADP solution (200 and 50 μM) were added to 450 μL of adjusted PRP to perform aggregation tests with 20 μM ADP and 5 μM ADP.
(§3) The samples were incubated in a water bath at 37° C. for 30 min before performing the LTA experiments. […]
as §2

[3] = system: platelets in platelet-rich plasma (PRP); experiment: Light transmission aggregometry, platelet aggregation induced by collagen
Experimental: Whole blood was collected into 0.105 M buffered sodium citrate as the anticoagulant. Platelet-rich plasma (PRP) was prepared by centrifugation of whole blood at 135×g for 20 min. The residual blood sample was then centrifuged at 2,500×g for 15 min to obtain platelet-poor plasma (PPP). Platelet counts in the PRP were determined using a Horiba Micros 60 cell counter. For LTA experiments, platelet counts in PRP were adjusted to 250,000/μL using autologous donor PPP as the diluent.
Twenty five (25) jμL of the stock solution of collagen (1 mg/ml) was added to 475 μL of collagen dilution buffer to obtain a 50 μg/ml working solution. Fifty (50) μL of collagen solution was added to 450 μL of adjusted PRP to perform aggregation tests. The final concentration of collagen used for aggregation testing was 5 μg/ml.
as §3, §2

[4] = Aspirin 10 μM, individual donor
[5] = Aspirin 100 μM, individual donor
[6] = Aspirin 1000 μM, individual donor
[7] = substance at 10 μM and higher (6-paradol: in most experiments)
[8] = substance at a concentration of 1 μM
[9] = 6-paradol 1 μM, individual donor
[10] = 6-paradol 10 μM, individual donor
[11] = 6-paradol 100 μM, individual donor
[12] = 6-paradol 1000 μM, individual donor

SMILES: CC(=O)Oc1ccccc1C(=O)O [Aspirin, aspirin]
- Maximal Percent Aggregation Response to 1.6 mM Arachidonic Acid ([1]; Aspirin 1 μM, Mean): 69%
- Maximal Percent Aggregation Response to 1.6 mM Arachidonic Acid ([1]; Aspirin 1 μM, individual donor): 75% and 0% and 100% and 73% and 95%
- Maximal Percent Aggregation Response to 1.6 mM Arachidonic Acid ([1]; Aspirin 10 μM, Mean): 2%
- Maximal Percent Aggregation Response to 1.6 mM Arachidonic Acid [1, 4]: 0% (3×) and 1% and 7%
- Maximal Percent Aggregation Response to 1.6 mM Arachidonic Acid ([1]; Aspirin 100 μM, Mean): 1%
- Maximal Percent Aggregation Response to 1.6 mM Arachidonic Acid [1, 5]: 0% (4×) and 5%
- Maximal Percent Aggregation Response to 1.6 mM Arachidonic Acid ([1]; Aspirin 1000 μM, Mean): 2%
- Maximal Percent Aggregation Response to 1.6 mM Arachidonic Acid [1, 6]: 0% (3×) and 8%
- inhibition of AA-mediated platelet aggregation [1, 7]: near complete inhibition
- inhibition of AA-mediated platelet aggregation [1, 8]: did not significantly inhibit
- Maximal Percent Aggregation Response to 5 μM Adenosine Diphosphate ([2]; Aspirin 1 μM, Mean): 82%
- Maximal Percent Aggregation Response to 20 μM Adenosine Diphosphate ([2]; Aspirin 1 μM, Mean): 90%
- Maximal Percent Aggregation Response to 5 μM Adenosine Diphosphate ([2]; Aspirin 1 μM, individual donor): 78% and 83% and 92% and 73%
- Maximal Percent Aggregation Response to 20 μM Adenosine Diphosphate ([2]; Aspirin 1 μM, individual donor): 91% and 87% and 100% and 81% and 90%
- Maximal Percent Aggregation Response to 5 μM Adenosine Diphosphate ([2]; Aspirin 10 μM, Mean): 70%
- Maximal Percent Aggregation Response to 20 μM Adenosine Diphosphate ([2]; Aspirin 10 μM, Mean): 80%
- Maximal Percent Aggregation Response to 5 μM Adenosine Diphosphate [2, 4]: 82% and 63% and 84% and 52%
- Maximal Percent Aggregation Response to 20 μM Adenosine Diphosphate [2, 4]: 78% (2×) and 92% and 68% and 84%
- Maximal Percent Aggregation Response to 5 μM Adenosine Diphosphate ([2]; Aspirin 100 μM, Mean): 71%
- Maximal Percent Aggregation Response to 20 μM Adenosine Diphosphate ([2]; Aspirin 100 μM, Mean): 86%
- Maximal Percent Aggregation Response to 5 μM Adenosine Diphosphate [2, 5]: 63% and 94% and 75% and 53%
- Maximal Percent Aggregation Response to 20 μM Adenosine Diphosphate [2, 5]: 63% and 87% (2×) and 95% and 97%
- Maximal Percent Aggregation Response to 5 μM Adenosine Diphosphate ([2]; Aspirin 1000 μM, Mean): 74%
- Maximal Percent Aggregation Response to 20 μM Adenosine Diphosphate ([2]; Aspirin 1000 μM, Mean): 80%
- Maximal Percent Aggregation Response to 5 μM Adenosine Diphosphate [2, 6]: 71% and 90% and 86% and 50%
- Maximal Percent Aggregation Response to 20 μM Adenosine Diphosphate [2, 6]: 72% and 84% and 80% and 78% and 88%
- inhibition of platelet aggregation in the presence of 5 or 20 μM ADP [2]: did not significantly inhibit
- Maximal Percent Aggregation Response to 5 μg/mL Collagen ([3]; Aspirin 1 μM, Mean): 94%
- Maximal Percent Aggregation Response to 5 μg/mL Collagen ([3]; Aspirin 1 μM, individual donor): 100% (2×) and 82% and 92% and 97%
- Maximal Percent Aggregation Response to 5 μg/mL Collagen ([3]; Aspirin 10 μM, Mean): 91%
- Maximal Percent Aggregation Response to 5 μg/mL Collagen [3, 4]: 86% and 100% (2×) and 80% and 87%
- Maximal Percent Aggregation Response to 5 μg/mL Collagen ([3]; Aspirin 100 μM, Mean): 65%
- Maximal Percent Aggregation Response to 5 μg/mL Collagen [3, 5]: 52% and 92% and 61% and 90% and 28%
- Maximal Percent Aggregation Response to 5 μg/mL Collagen ([3]; Aspirin 1000 μM, Mean): 56%
- Maximal Percent Aggregation Response to 5 μg/mL Collagen [3, 6]: 39% and 75% and 52% and 83% and 32%
- inhibition at 1000 µM ([3]; Homo sapiens, Platelet, read-out: inhibition of collagen-mediated platelet aggregation response relative to DMSO control): ~37%

SMILES: CCCCCCCC(=O)CCc1ccc(O)c(OC)c1 [6-paradol]
- Maximal Percent Aggregation Response to 1.6 mM Arachidonic Acid ([1]; 6-paradol 1 μM, Mean): 82%
- Maximal Percent Aggregation Response to 1.6 mM Arachidonic Acid [1, 9]: 72% and 77% and 96% and 65% and 98%
- Maximal Percent Aggregation Response to 1.6 mM Arachidonic Acid ([1]; 6-paradol 10 μM, Mean): 51%
- Maximal Percent Aggregation Response to 1.6 mM Arachidonic Acid [1, 10]: 0% (2×) and 99% and 71% and 87%
- Maximal Percent Aggregation Response to 1.6 mM Arachidonic Acid ([1]; 6-paradol 100 μM, Mean): 2%
- Maximal Percent Aggregation Response to 1.6 mM Arachidonic Acid [1, 11]: 0% (4×) and 9%
- Maximal Percent Aggregation Response to 1.6 mM Arachidonic Acid ([1]; 6-paradol 1000 μM, Mean): 1%
- Maximal Percent Aggregation Response to 1.6 mM Arachidonic Acid [1, 12]: 0% (4×) and 3%
- inhibition of AA-mediated platelet aggregation [1, 7]: Near complete inhibition
- inhibition of AA-mediated platelet aggregation [1, 8]: did not significantly inhibit
- Maximal Percent Aggregation Response to 5 μM Adenosine Diphosphate ([2]; 6-paradol 1 μM, Mean): 77%
- Maximal Percent Aggregation Response to 20 μM Adenosine Diphosphate ([2]; 6-paradol 1 μM, Mean): 83%
- Maximal Percent Aggregation Response to 5 μM Adenosine Diphosphate [2, 9]: 83% and 81% and 92% and 50%
- Maximal Percent Aggregation Response to 20 μM Adenosine Diphosphate [2, 9]: 70% and 85% and 88% and 74% and 99%
- Maximal Percent Aggregation Response to 5 μM Adenosine Diphosphate ([2]; 6-paradol 10 μM, Mean): 74%
- Maximal Percent Aggregation Response to 20 μM Adenosine Diphosphate ([2]; 6-paradol 10 μM, Mean): 86%
- Maximal Percent Aggregation Response to 5 μM Adenosine Diphosphate [2, 10]: 77% and 78% and 96% and 46%
- Maximal Percent Aggregation Response to 20 μM Adenosine Diphosphate [2, 10]: 81% and 82% and 100% and 84% and 85%
- Maximal Percent Aggregation Response to 5 μM Adenosine Diphosphate ([2]; 6-paradol 100 μM, Mean): 63%
- Maximal Percent Aggregation Response to 20 μM Adenosine Diphosphate ([2]; 6-paradol 100 μM, Mean): 79%
- Maximal Percent Aggregation Response to 5 μM Adenosine Diphosphate [2, 11]: 57% and 67% and 81% and 45%
- Maximal Percent Aggregation Response to 20 μM Adenosine Diphosphate [2, 11]: 63% and 73% and 95% and 76% and 90%
- Maximal Percent Aggregation Response to 5 μM Adenosine Diphosphate ([2]; 6-paradol 1000 μM, Mean): 50%
- Maximal Percent Aggregation Response to 20 μM Adenosine Diphosphate ([2]; 6-paradol 1000 μM, Mean): 66%
- Maximal Percent Aggregation Response to 5 μM Adenosine Diphosphate [2, 12]: 55% and 53% and 59% and 33%
- Maximal Percent Aggregation Response to 20 μM Adenosine Diphosphate [2, 12]: 53% and 67% (3×) and 78%
- inhibition of platelet aggregation in the presence of 5 or 20 μM ADP [2]: did not significantly inhibit
- Maximal Percent Aggregation Response to 5 μg/ml Collagen ([3]; 6-paradol 1 μM, Mean): 89%
- Maximal Percent Aggregation Response to 5 μg/ml Collagen [3, 9]: 81% and 100% and 77% and 97% and 90%
- Maximal Percent Aggregation Response to 5 μg/ml Collagen ([3]; 6-paradol 10 μM, Mean): 95%
- Maximal Percent Aggregation Response to 5 μg/ml Collagen [3, 10]: 82% and 100% (2×) and 97% and 98%
- Maximal Percent Aggregation Response to 5 μg/ml Collagen ([3]; 6-paradol 100 μM, Mean): 85%
- Maximal Percent Aggregation Response to 5 μg/ml Collagen [3, 11]: 82% and 100% and 88% and 89% and 64%
- inhibition of collagen-mediated platelet aggregation response ([3]; 6-paradol 1000 μM): substantially inhibited
- Maximal Percent Aggregation Response to 5 μg/ml Collagen ([3]; 6-paradol 1000 μM, Mean): 41%
- Maximal Percent Aggregation Response to 5 μg/ml Collagen [3, 12]: 23% and 60% and 36% and 74% and 10%
- inhibition of collagen-mediated platelet aggregation ([3]; 6-paradol concentrations of 100 μM or less): did not significantly inhibit
